Measurements reported in patent publication US11096991B2, “Nanoreactor using polyion complex polymersomes, and method for producing same” (THE UNIVERSITY OF TOKYO, priority 2015, dated 2021).

Experiments:
[1] = tested on: α-galactosidase (α-GAL), encapsulated in PICsome; assay: Enzyme activity of α-GAL encapsulated in PICsome, Michaelis-Menten/Lineweaver-Burk plot with Gal-AMC; format: biochemical; settings: substrate Gal-AMC, PBS, 37° C., AMC fluorescence Ex/Em=350 nm/450 nm
Method: In the same manner as in Section 5 of Example 1, a solution containing empty PICsomes was prepared. Thereafter, 11.4 mg of α-galactosidase (hereinafter referred to as “α-GAL”) was dissolved in 5.7 mL of a 10 mM phosphate buffer (PB, pH 7.4, 0 mM NaCl) to prepare a 2 mg/mL α-GAL solution.
An aliquot (1 mL) was taken from the 2 mg/mL α-GAL solution and mixed with 1 mL of the solution containing empty PICsomes. The solution mixture was stirred by a Vortex mixer for 2 minutes (2000 rpm). Thereafter, to the solution, a PB solution (5.6 mL) containing a water soluble condensing agent, EDC (10 mg/mL) was added. The mixture was allowed to stand still overnight to crosslink a polyion complex. […] A solution of fluorescence labeled α-GAL was prepared in the same manner as above.
Enzyme activity was evaluated with respect to free α-GAL and encapsulated α-GAL, respectively. […] Gal-AMC is decomposed by the enzyme activity of α-GAL to produce 7-amino-4-methyl coumarin (also referred to as “AMC”), which emits fluorescence (Ex/Em=350 nm/450 nm).
More specifically, first, PBS solutions of Gal-AMC, free α-GAL, and encapsulated α-GAL were each placed in a thermostatic chamber and allowed to stand still at 37° C. […] The plate was placed in a multiplate reader kept at 37° C. in advance and fluorescence intensity was measured periodically for a predetermined time. […]

[2] = tested on: α-galactosidase (α-GAL), free (unencapsulated); assay: Enzyme activity of free α-GAL, Michaelis-Menten/Lineweaver-Burk plot with Gal-AMC; format: biochemical; settings: substrate Gal-AMC, PBS, 37° C., AMC fluorescence Ex/Em=350 nm/450 nm
Method: Enzyme activity was evaluated with respect to free α-GAL and encapsulated α-GAL, respectively. The enzyme activity of α-GAL was checked by the reaction with a substrate, α-galactosyl-β-(7-amide-4-methyl coumarin) (also referred to as “Gal-AMC”) as shown in FIG. 19B. Gal-AMC is decomposed by the enzyme activity of α-GAL to produce 7-amino-4-methyl coumarin (also referred to as “AMC”), which emits fluorescence (Ex/Em=350 nm/450 nm).
More specifically, first, PBS solutions of Gal-AMC, free α-GAL, and encapsulated α-GAL were each placed in a thermostatic chamber and allowed to stand still at 37° C. Thereafter, the Gal-AMC solution was mixed with the free α-GAL or encapsulated α-GAL solution. From the solution mixture, an aliquot (predetermined amount) was taken and immediately poured to a 96 well plate (TECAN). The plate was placed in a multiplate reader kept at 37° C. in advance and fluorescence intensity was measured periodically for a predetermined time.
The enzyme activity was evaluated by preparing the Michaelis-Menten plot and Lineweaver-Burk plot. At this time, using a calibration curve previously prepared by using an AMS standard solution, a change of fluorescence intensity was converted into the production rate of a product. In this manner, a reaction rate V was obtained. Measurement was performed by changing the substrate concentration [S] variously. […]

Km [1]: 190 µM
Km [2]: 180 µM
Compound: Cc1cc(=O)oc2cc(N[C@H]3O[C@H](CO)[C@H](O)[C@H](O)[C@H]3O)ccc12 [Gal-AMC, α-galactosyl-β-(7-amide-4-methylcoumarin)]
